According to patent US7153852B2, “Indole compounds, process for producing the same and drugs containing the same as the active ingredient” (Ono Pharmaceutical Co., Ltd., priority 2001, dated 2006):

Target: T1, mouse DP receptors (Mus musculus, UniProt P70263)
T1 construct: expressed in transfected cells; host or cells: CHO cells (membrane preparation)
T1 sequence (P70263 1-357): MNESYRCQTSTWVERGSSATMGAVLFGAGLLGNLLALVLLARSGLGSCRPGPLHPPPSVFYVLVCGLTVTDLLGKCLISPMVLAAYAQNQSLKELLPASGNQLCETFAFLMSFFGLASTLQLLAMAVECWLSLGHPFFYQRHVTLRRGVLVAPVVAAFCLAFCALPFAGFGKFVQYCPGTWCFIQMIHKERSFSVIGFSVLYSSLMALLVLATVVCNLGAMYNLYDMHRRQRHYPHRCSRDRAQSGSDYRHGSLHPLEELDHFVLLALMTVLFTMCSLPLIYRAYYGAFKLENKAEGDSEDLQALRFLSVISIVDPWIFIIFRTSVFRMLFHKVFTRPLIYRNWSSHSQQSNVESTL
Assay: Receptor binding test using prostanoid DP receptor-expressing cells (3H-PGD2 binding inhibition)
Settings: membrane of CHO cells expressing mouse DP receptors; 3H-PGD2 2.5 nmol/L; Ki=IC50/(1+([L]*/Kd))
Protocol: (i) Receptor Binding Test Using Prostanoid DP Receptor-Expressing Cells
CHO cells expressing mouse DP receptors were prepared according to the method of Hirata et al. (Proc. Natl. Acad. Sci., 91, 11192–11196 (1994)) and used as a membrane standard.
A reaction solution (200 μL) containing the prepared membrane standard (30–166 μg) and ^3H-PGD2 was incubated at room temperature for 20 minutes. The reaction was stopped with an ice-cold buffer (1 mL) and the binding ^3H-PGD2 was trapped in on a glass filter by immediate aspiration-filtration under a reduced pressure, and its binding radioactivity was measured using a liquid scintillation counter.
Kd value and Bmax value were obtained from Scatchard plots (Ann. N. Y. Acad. Sci., 51, 660 (1949)]. Non-specific binding was obtained as the binding radioactivity in the presence of unlabeled PGD2 at an excess amount (10 μmol/L). 3H-PGD2 binding inhibition by the compound of the present invention was measured by adding ^3H-PGD2 (2.5 nmol/L) and the compound of the present invention as various concentrations. Also, the following buffers were used for the reactions.
The dissociation constant (Ki) (μmol/L) of each compound was obtained by the following equation. Ki=IC50/(1+([L]*/Kd)) • [L*]: Concentration of radioligand

Ki: 31 nM
Compound: Cc1cc2c(CC(=O)O)cccc2n1C(=O)c1ccc(OC[C@H]2Cc3ccccc3O2)cc1 [2(16), 1-(4-((2R)-2,3-dihydrobenzofuran-2-ylmethoxy)benzoyl)-2-methyl-1H-indol-4-ylacetic acid]
